Test results: publication PMC5218480 (PLoS ONE, 2017)

Test system: MV-4-11 cells
Experiment: Gene expression microarray analysis (Affymetrix PrimeView) and GSEA
Type: cell-based, human
Parameters: RFU PODN (11730768_x_at) / Fold change /veh PODN (11730768_x_at) / RFU LINC00158 (11744669_a_at) / Fold change /veh LINC00158 (11744669_a_at) / RFU DUSP10 (11751237_a_at) / Fold change /veh DUSP10 (11751237_a_at) / RFU ID3 (11757404_x_at) / Fold change /veh ID3 (11757404_x_at) / RFU PLEKHG5 (11737974_s_at) / Fold change /veh PLEKHG5 (11737974_s_at) / RFU LRRC4B (11730491_at) / Fold change /veh LRRC4B (11730491_at) / RFU GIMAP4 (11747438_a_at) / Fold change /veh GIMAP4 (11747438_a_at) / RFU KRT8 (11758183_x_at) / Fold change /veh KRT8 (11758183_x_at) / RFU CNN1 (11734310_a_at) / Fold change /veh CNN1 (11734310_a_at) / RFU VPS37D (11726825_at) / Fold change /veh VPS37D (11726825_at) / RFU C10orf10 (11716522_x_at) / Fold change /veh C10orf10 (11716522_x_at) / RFU KIR2DL2 /// KIR2DL4 /// KIR2DL5A /// KIR2DL5B /// KIR2DS1 /// KIR2DS2 /// KIR2DS3 /// KIR2DS4 /// KIR3DL3 /// KIR3DL3 /// KIR3DS1 (11738374_at) / Fold change /veh KIR2DL2 /// KIR2DL4 /// KIR2DL5A /// KIR2DL5B /// KIR2DS1 /// KIR2DS2 /// KIR2DS3 /// KIR2DS4 /// KIR3DL3 /// KIR3DL3 /// KIR3DS1 (11738374_at) / RFU C1QL1 (11718748_at) / Fold change /veh C1QL1 (11718748_at) / RFU TMPRSS4 (11747572_a_at) / Fold change /veh TMPRSS4 (11747572_a_at) / RFU HAMP (11756126_x_at) / Fold change /veh HAMP (11756126_x_at) / RFU RNFT2 (11725882_a_at) / Fold change /veh RNFT2 (11725882_a_at) / RFU NR4A2 (11747474_a_at) / Fold change /veh NR4A2 (11747474_a_at) / RFU ABCC12 (11746883_a_at) / Fold change /veh ABCC12 (11746883_a_at) / RFU TMEM136 (11760407_x_at) / Fold change /veh TMEM136 (11760407_x_at) / RFU CLDN22 /// WWC2 (11732394_at) / Fold change /veh CLDN22 /// WWC2 (11732394_at) / RFU HLA-DPB1 (11760878_x_at) / Fold change /veh HLA-DPB1 (11760878_x_at) / RFU SPINT1 (11716480_a_at) / Fold change /veh SPINT1 (11716480_a_at) / RFU GAP43 (11754022_s_at) / Fold change /veh GAP43 (11754022_s_at) / RFU A4GNT (11735810_at) / Fold change /veh A4GNT (11735810_at) / RFU PRB3 (11715151_x_at) / Fold change /veh PRB3 (11715151_x_at) / RFU TUBB4B (11761932_at) / Fold change /veh TUBB4B (11761932_at) / RFU CAPN14 (11732068_a_at) / Fold change /veh CAPN14 (11732068_a_at) / RFU TMCC2 (11721928_a_at) / Fold change /veh TMCC2 (11721928_a_at) / RFU IRGQ (11745062_a_at) / Fold change /veh IRGQ (11745062_a_at) / RFU FAM174B (11720279_a_at) / Fold change /veh FAM174B (11720279_a_at) / RFU TMPRSS4 (11748680_a_at) / Fold change /veh TMPRSS4 (11748680_a_at) / RFU FAM212B (11763350_a_at) / Fold change /veh FAM212B (11763350_a_at) / RFU PLEKHG5 (11743358_a_at) / Fold change /veh PLEKHG5 (11743358_a_at) / RFU ZSCAN30 (11745921_a_at) / Fold change /veh ZSCAN30 (11745921_a_at) / RFU CMKLR1 (11741424_a_at) / Fold change /veh CMKLR1 (11741424_a_at) / RFU LOC101060620 /// MAPK8IP1 (11723275_at) / Fold change /veh LOC101060620 /// MAPK8IP1 (11723275_at) / RFU SPTSSB (11747773_x_at) / Fold change /veh SPTSSB (11747773_x_at) / RFU PRSS12 (11739890_at) / Fold change /veh PRSS12 (11739890_at) / RFU BIN1 (11741810_x_at) / Fold change /veh BIN1 (11741810_x_at) / RFU WNT11 (11732464_a_at) / Fold change /veh WNT11 (11732464_a_at) / RFU C10orf10 (11716521_a_at) / Fold change /veh C10orf10 (11716521_a_at) / RFU C5orf56 (11738089_at) / Fold change /veh C5orf56 (11738089_at) / RFU CYB561 (11721691_x_at) / Fold change /veh CYB561 (11721691_x_at) / RFU ANKRD19P (11752326_a_at) / Fold change /veh ANKRD19P (11752326_a_at) / RFU OR2T12 /// OR2T33 /// OR2T8 (11738714_s_at) / Fold change /veh OR2T12 /// OR2T33 /// OR2T8 (11738714_s_at) / RFU VCAN (11748164_a_at) / Fold change /veh VCAN (11748164_a_at) / RFU JSRP1 (11732532_at) / Fold change /veh JSRP1 (11732532_at) / RFU KRTAP10-11 (11738290_x_at) / Fold change /veh KRTAP10-11 (11738290_x_at) / RFU MYO3A (11730013_a_at) / Fold change /veh MYO3A (11730013_a_at) / RFU EBF3 (11725865_a_at) / Fold change /veh EBF3 (11725865_a_at) / RFU CAMK2N1 (11719241_x_at) / Fold change /veh CAMK2N1 (11719241_x_at) / RFU C5orf56 (11738088_a_at) / Fold change /veh C5orf56 (11738088_a_at) / RFU OLFML3 (11715873_a_at) / Fold change /veh OLFML3 (11715873_a_at) / RFU LOC100653217 /// NTM (11731650_a_at) / Fold change /veh LOC100653217 /// NTM (11731650_a_at) / RFU MAPK11 (11762145_a_at) / Fold change /veh MAPK11 (11762145_a_at) / RFU FIZ1 (11724087_x_at) / Fold change /veh FIZ1 (11724087_x_at) / RFU OASL (11726364_x_at) / Fold change /veh OASL (11726364_x_at) / RFU SOX15 (11748057_x_at) / Fold change /veh SOX15 (11748057_x_at) / RFU CD79A (11719716_a_at) / Fold change /veh CD79A (11719716_a_at) / RFU HIST1H1D (11736915_at) / Fold change /veh HIST1H1D (11736915_at) / RFU CASKIN2 (11723855_a_at) / Fold change /veh CASKIN2 (11723855_a_at) / RFU LOC730098 (11760151_x_at) / Fold change /veh LOC730098 (11760151_x_at) / RFU OR4N2 (11742367_at) / Fold change /veh OR4N2 (11742367_at) / RFU PRRT2 (11749266_a_at) / Fold change /veh PRRT2 (11749266_a_at) / RFU SNX32 (11753110_a_at) / Fold change /veh SNX32 (11753110_a_at) / RFU CDHR5 (11726645_a_at) / Fold change /veh CDHR5 (11726645_a_at) / RFU RCAN1 (11760418_a_at) / Fold change /veh RCAN1 (11760418_a_at) / RFU FAM167A (11723789_a_at) / Fold change /veh FAM167A (11723789_a_at) / RFU FAM26E (11764081_at) / Fold change /veh FAM26E (11764081_at) / RFU ISYNA1 (11749810_s_at) / Fold change /veh ISYNA1 (11749810_s_at) / RFU ACY1 (11761880_at) / Fold change /veh ACY1 (11761880_at) / RFU 11764098_at / Fold change /veh 11764098_at / RFU SAMD14 (11745864_x_at) / Fold change /veh SAMD14 (11745864_x_at) / RFU NPB (11741838_a_at) / Fold change /veh NPB (11741838_a_at) / RFU TMPRSS6 (11731388_a_at) / Fold change /veh TMPRSS6 (11731388_a_at) / RFU KRTAP10-2 (11738614_at) / Fold change /veh KRTAP10-2 (11738614_at) / RFU ARHGAP8 /// PRR5-ARHGAP8 (11727945_x_at) / Fold change /veh ARHGAP8 /// PRR5-ARHGAP8 (11727945_x_at) / RFU KRTAP5-7 /// NADSYN1 (11734609_at) / Fold change /veh KRTAP5-7 /// NADSYN1 (11734609_at) / RFU RASL12 (11751679_a_at) / Fold change /veh RASL12 (11751679_a_at) / RFU CDKN2B (11736163_a_at) / Fold change /veh CDKN2B (11736163_a_at) / RFU PRF1 (11729649_at) / Fold change /veh PRF1 (11729649_at) / RFU, ZNF638 /// ZNF638-IT1 / Fold change vs veh, ZNF638 /// ZNF638-IT1 / RFU, PANK3 / Fold change vs veh, PANK3 / RFU, SH3YL1 / Fold change vs veh, SH3YL1 / RFU, ZEB2 / Fold change vs veh, ZEB2 / RFU, NRIP1 / Fold change vs veh, NRIP1 / RFU, PTTG1IP / Fold change vs veh, PTTG1IP / RFU, CAPN2 / Fold change vs veh, CAPN2 / RFU, MED14 / Fold change vs veh, MED14 / RFU, SNORA58 / Fold change vs veh, SNORA58 / RFU, C1orf63 / Fold change vs veh, C1orf63 / RFU, LRRFIP1 / Fold change vs veh, LRRFIP1 / RFU, NDUFAF7 / Fold change vs veh, NDUFAF7 / RFU, SLC12A2 / Fold change vs veh, SLC12A2 / RFU, IBTK / Fold change vs veh, IBTK / RFU, ESF1 / Fold change vs veh, ESF1 / Fold change vs veh, TMEM50B / RFU, TAOK1 / Fold change vs veh, TAOK1 / RFU, ACBD3 / Fold change vs veh, ACBD3 / RFU, TMA16 / Fold change vs veh, TMA16 / RFU, RWDD3 / Fold change vs veh, RWDD3 / RFU, BCAT1 / Fold change vs veh, BCAT1 / RFU, EDEM3 / Fold change vs veh, EDEM3 / RFU, TMEM33 / Fold change vs veh, TMEM33 / RFU, WDR75 / Fold change vs veh, WDR75 / RFU, AHCTF1 / Fold change vs veh, AHCTF1 / RFU, TFRC / Fold change vs veh, TFRC / RFU, ZDHHC17 / Fold change vs veh, ZDHHC17 / RFU, NOM1 / Fold change vs veh, NOM1 / RFU, ARL8B / Fold change vs veh, ARL8B / RFU, ZBTB11 / Fold change vs veh, ZBTB11 / RFU, TAMM41 / Fold change vs veh, TAMM41 / RFU, KIAA1704 /// LOC100996395 / Fold change vs veh, KIAA1704 /// LOC100996395 / RFU, ING1 / Fold change vs veh, ING1 / RFU, TRMT61B / Fold change vs veh, TRMT61B / RFU, FUBP3 / Fold change vs veh, FUBP3 / RFU, TP53 / Fold change vs veh, TP53 / RFU, TNKS2 / Fold change vs veh, TNKS2 / RFU, ZFP14 / Fold change vs veh, ZFP14 / RFU, ACTR2 / Fold change vs veh, ACTR2 / RFU, PPP3R1 / Fold change vs veh, PPP3R1 / RFU, PIK3R1 / Fold change vs veh, PIK3R1 / RFU, HNRNPA1 / Fold change vs veh, HNRNPA1 / RFU, RNF170 / Fold change vs veh, RNF170 / RFU, ZNF28 / Fold change vs veh, ZNF28 / RFU, RNGTT / Fold change vs veh, RNGTT / RFU, OGT / Fold change vs veh, OGT / RFU, BRD1 / Fold change vs veh, BRD1 / RFU, MARS / Fold change vs veh, MARS / RFU, ZNF655 / Fold change vs veh, ZNF655 / RFU, FAHD1 / Fold change vs veh, FAHD1 / RFU, BDP1 / Fold change vs veh, BDP1 / RFU, LRRCC1 / Fold change vs veh, LRRCC1 / RFU, ARID1A / Fold change vs veh, ARID1A / RFU, ZNF146 / Fold change vs veh, ZNF146 / RFU, ZNF330 / Fold change vs veh, ZNF330 / RFU, GPN3 / Fold change vs veh, GPN3 / RFU, C9orf123 / Fold change vs veh, C9orf123 / RFU, N4BP2L2 / Fold change vs veh, N4BP2L2 / RFU, ARFIP1 / Fold change vs veh, ARFIP1 / RFU, FAM179B / Fold change vs veh, FAM179B / RFU, BCL10 / Fold change vs veh, BCL10 / RFU, UHRF1BP1L / Fold change vs veh, UHRF1BP1L / RFU, BET1 / Fold change vs veh, BET1 / RFU, CNOT2 / Fold change vs veh, CNOT2 / RFU, ZNF268 / Fold change vs veh, ZNF268 / Fold change vs veh, ZNF507 / RFU, DGCR2 / Fold change vs veh, DGCR2 / RFU, WDSUB1 / Fold change vs veh, WDSUB1 / Fold change vs veh, HSP90B1 /// MIR3652 / RFU, ADSS / Fold change vs veh, ADSS / RFU, GK / Fold change vs veh, GK / RFU, ZNF148 / Fold change vs veh, ZNF148 / RFU, TAF9 / Fold change vs veh, TAF9 / RFU, SLC1A5 / Fold change vs veh, SLC1A5 / RFU, SLMO2 / Fold change vs veh, SLMO2 / RFU, ABCC4 / Fold change vs veh, ABCC4 / RFU, LOC101060439 /// RAP1B / Fold change vs veh, LOC101060439 /// RAP1B / RFU, RFX7 / Fold change vs veh, RFX7 / RFU, GTPBP10 / Fold change vs veh, GTPBP10 / RFU, CNEP1R1 / Fold change vs veh, CNEP1R1 / RFU, BIVM-ERCC5 /// ERCC5 / Fold change vs veh, BIVM-ERCC5 /// ERCC5 / RFU, ILF3 / Fold change vs veh, ILF3 / RFU 11762660_at / Fold change /veh 11762660_at / RFU VCAN (11757783_s_at) / Fold change /veh VCAN (11757783_s_at) / RFU DDX43 (11728927_at) / Fold change /veh DDX43 (11728927_at) / RFU KRT8 (11758188_x_at) / Fold change /veh KRT8 (11758188_x_at) / RFU NKD1 (11759106_at) / Fold change /veh NKD1 (11759106_at) / RFU SRD5A1 (11742802_a_at) / Fold change /veh SRD5A1 (11742802_a_at) / RFU TPSAB1 /// TPSB2 (11721975_s_at) / Fold change /veh TPSAB1 /// TPSB2 (11721975_s_at) / RFU GSTM3 (11746129_a_at) / Fold change /veh GSTM3 (11746129_a_at) / RFU IL23R (11737362_x_at) / Fold change /veh IL23R (11737362_x_at) / RFU TMEM51 (11727254_a_at) / Fold change /veh TMEM51 (11727254_a_at) / RFU PIWIL2 (11732686_x_at) / Fold change /veh PIWIL2 (11732686_x_at) / RFU ORM1 (11744905_x_at) / Fold change /veh ORM1 (11744905_x_at) / RFU CCDC152 (11743942_at) / Fold change /veh CCDC152 (11743942_at) / RFU ECM1 (11717891_a_at) / Fold change /veh ECM1 (11717891_a_at) / RFU IL23R (11748794_a_at) / Fold change /veh IL23R (11748794_a_at) / RFU TNFAIP8L3 (11732012_x_at) / Fold change /veh TNFAIP8L3 (11732012_x_at) / RFU MBOAT4 (11741988_at) / Fold change /veh MBOAT4 (11741988_at) / RFU 11764193_at / Fold change /veh 11764193_at / RFU TMEM53 (11763286_at) / Fold change /veh TMEM53 (11763286_at) / RFU MAGEB2 (11727129_at) / Fold change /veh MAGEB2 (11727129_at) / RFU TMEM200A (11744735_a_at) / Fold change /veh TMEM200A (11744735_a_at) / RFU CCDC152 (11751479_a_at) / Fold change /veh CCDC152 (11751479_a_at) / RFU FAM211A (11726209_a_at) / Fold change /veh FAM211A (11726209_a_at) / RFU RGS16 (11746705_a_at) / Fold change /veh RGS16 (11746705_a_at) / RFU VCAN (11755009_s_at) / Fold change /veh VCAN (11755009_s_at) / RFU RHOB (11743442_s_at) / Fold change /veh RHOB (11743442_s_at) / RFU RGS16 (11720943_a_at) / Fold change /veh RGS16 (11720943_a_at) / RFU RGS16 (11720944_at) / Fold change /veh RGS16 (11720944_at) / RFU, VPS4B / Fold change vs veh, VPS4B / RFU, CREB1 / Fold change vs veh, CREB1 / RFU, DNAJC13 / Fold change vs veh, DNAJC13 / RFU, GNAQ / Fold change vs veh, GNAQ / RFU, CDK5R1 / Fold change vs veh, CDK5R1 / RFU, ZRANB3 / Fold change vs veh, ZRANB3 / RFU, CUL4A / Fold change vs veh, CUL4A / RFU, CCNY / Fold change vs veh, CCNY / RFU, UFL1 / Fold change vs veh, UFL1 / RFU, COG3 / Fold change vs veh, COG3 / RFU, DIAPH2 / Fold change vs veh, DIAPH2 / RFU, SKA2 / Fold change vs veh, SKA2 / RFU, AFF3 / Fold change vs veh, AFF3 / RFU, LMF1 / Fold change vs veh, LMF1 / RFU, IPO11 / Fold change vs veh, IPO11 / RFU, DFFB / Fold change vs veh, DFFB / RFU, FOXP1 / Fold change vs veh, FOXP1 / RFU, CARD8 / Fold change vs veh, CARD8 / RFU, STRN3 / Fold change vs veh, STRN3 / RFU, ADK / Fold change vs veh, ADK / RFU, RASSF2 / Fold change vs veh, RASSF2 / RFU, WIPF1 / Fold change vs veh, WIPF1 / RFU, LARP1B / Fold change vs veh, LARP1B / RFU, RASA1 / Fold change vs veh, RASA1 / RFU, RB1 / Fold change vs veh, RB1 / RFU, PPFIA1 / Fold change vs veh, PPFIA1 / RFU, MAT2A / Fold change vs veh, MAT2A / RFU, CCT5 / Fold change vs veh, CCT5 / RFU, WDR92 / Fold change vs veh, WDR92 / RFU, CUX1 / Fold change vs veh, CUX1 / RFU, TTC7A / Fold change vs veh, TTC7A / RFU, TMEM135 / Fold change vs veh, TMEM135 / RFU, DEPTOR / Fold change vs veh, DEPTOR / RFU, CPM / Fold change vs veh, CPM / RFU, DNAJB6 / Fold change vs veh, DNAJB6 / RFU, CACNA2D3 / Fold change vs veh, CACNA2D3 / RFU, DTX4 / Fold change vs veh, DTX4 / RFU, TFCP2 / Fold change vs veh, TFCP2 / RFU, GMCL1 /// GMCL1P1 / Fold change vs veh, GMCL1 /// GMCL1P1 / RFU, AEBP2 / Fold change vs veh, AEBP2 / RFU, SNHG1 /// SNORD22 /// SNORD25 /// SNORD26 /// SNORD27 /// SNORD28 /// SNORD29 /// SNORD31 / Fold change vs veh, SNHG1 /// SNORD22 /// SNORD25 /// SNORD26 /// SNORD27 /// SNORD28 /// SNORD29 /// SNORD31 / Fold change (Aza/veh), C12orf56 (ProbeSet 11735607_a_at) / Fold change (ACY-1035/veh), C12orf56 (ProbeSet 11735607_a_at) / Fold change (Aza/veh), FGFR1OP (ProbeSet 11751329_s_at) / Fold change (ACY-1035/veh), FGFR1OP (ProbeSet 11751329_s_at) / Fold change (Aza/veh), VPS36 (ProbeSet 11739960_a_at) / Fold change (ACY-1035/veh), VPS36 (ProbeSet 11739960_a_at) / RFU SYPL1 (11715823_x_at) / Fold change /veh SYPL1 (11715823_x_at) / RFU IGFBP7 (11715501_s_at) / Fold change /veh IGFBP7 (11715501_s_at) / RFU REEP3 (11722064_at) / Fold change /veh REEP3 (11722064_at) / RFU IGLL1 (11728026_x_at) / Fold change /veh IGLL1 (11728026_x_at): dose or concentration left out as unconfirmed
Conditions: MV-4-11 cells, 48 hours

## Nc1ncn([C@@H]2O[C@H](CO)[C@@H](O)[C@H]2O)c(=O)n1 [azacitidine]
  RFU ARHGAP8 /// PRR5-ARHGAP8 (11727945_x_at): 97.01 RFU
